Laboratory results published in patent US10080779B2, “Method for increasing the expression of anti-microbial peptides by keratinocytes comprising administering a composition comprising IL-17, TNF-alpha and OSM” (Universite D'Angers, priority 2004, dated 2018).

Key:
RHE [1] = experiment: RHE histology and immunohistochemistry (Example 14); format: cell-based, human; conditions: 72 h; for CK10, LOR and FLG expression (immunohistology) / IVL expression (immunohistology) / S100A7 expression (immunohistology): RHE; for CK10, LOR and FLG expression (immunohistology) / IVL expression (immunohistology) / S100A7 expression (immunohistology) / RHE histology: single cytokines
Description: (§1) Normal human epidermal keratinocytes (NHEK) were obtained as previously described, from surgical samples of healthy breast skin (Boniface et al, 2005). NHEK were cultured to 80% of confluence allowing the expression of a large panel of keratinocyte differentiation markers, and then starved for 24 h in Keratinocyte SFM containing 0.03 mM Ca^2+ (Invitrogen Life Technologies, Cergy Pontoise, France) before stimulation. Confluent differentiated cells were stimulated with or without recombinant IL-17A, OSM, TNFα, IL-22 and IL-1α alone at maximum effective concentrations (reported previously around 10 ng/ml (Boniface et al, 2005 and Boniface et al, 2007)) or in combination (R&D systems Europe, Lille, France) during 2 h to 72 h for mRNA quantification. RHE were generated on polycarbonate culture inserts, from surgical samples of paediatric foreskins as previously described (Guenou et al., 2009). RHE were stimulated with or without recombinant IL-17A, OSM, TNFα, IL-22 and IL-1α alone or in combination, with or without a Janus protein Tyrosine Kinases (JAKs) inhibitor 10 μM (Calbiochem, 420099), during 24 h for mRNA quantification or during 72 h for immunohistological analysis.
RHE were washed and fixed with formaldehyde solution. Fixed tissues were dehydrated with increasing ethanol concentrations, embedded in paraffin and sections were carried out using a microtome (4 μm thickness). The sections were deparaffinised, washed and incubated with hydrogen peroxide. The sections were incubated with anti-CK10 (SantaCruz, SC-23877), anti-LOR (Eurogentec, PRB-145P), anti-FLG (SantaCruz, SC-66192), anti-IVL (Biomedical Technologies, BT-601), anti-S100A7 (Clinisciences, IMG-409A) and then detected using a biotin-conjugated secondary antibody (Vector, RTU vectastain universal quick kit, PK-7800). After peroxidase-conjugated streptavidine (Vector, RTU vectastain universal quick kit, PK-7800) and peroxidase substrate addition (Dako, Substrat hyper-sensible AEC+), nuclei were counter-stained using a solution of hematoxylin. Sections were observed using a NIKON E400 microscope. The images were captured using a NIKON DS-Ril and processed with NIS-Elements 3.10 software.

NHEK [2] = experiment: cDNA macroarrays analysis of 36 cytokines on 154 genes in NHEK; format: cell-based, human; conditions: 10 ng/ml, 24 h
Description: The comparison of the effects of 36 different cytokines on the expression of 154 genes of potential interest for skin physiology was performed using home-made cDNA macroarrays analysis. After cytokine stimulation, total RNA was extracted using TRIzoI® Reagent (Invitrogen life Technologies) and conventional 33P-cDNA target synthesis and hybridization were performed (Boniface et al, 2007). Genes were considered regulated if expression levels differed more than 3-fold relative to untreated control and 3-fold relative to mean background noise.

NHEK [3] = experiment: Cytokine measurement by ELISA in NHEK culture supernatants; format: cell-based, human; conditions: 96 h; for Redundancy with the family member it replaces in M5 (BD2 and CXCL8 production): IL-1β for IL-1α, TNFβ for TNFα, IL-17F for IL-17A, IL-24 for IL-22, IL-6 for OSM
Description: (§2) NHEK were obtained as previously described, from surgical samples of healthy breast skin (Boniface et al, 2005). NHEK were cultured to 80% of confluence and then starved for 24 h in Keratinocyte SFM without addition of growth factors before stimulation. Cells were stimulated with or without 10 ng/ml of recombinant IL-17A, OSM, TNFα, IL-22 and IL-1α alone or in combination (R&D systems Europe, Lille, France) during 24 h for mRNA quantification or 48 h to 96 h for protein quantification.
Levels of BD2, BD3 and CXCL8 were determined using Human ELISA development kit (Peprotech), and CXCL1 and CXCL5 with DuoSet reagents (R&D Systems Europe).

RHE [4] = experiment: KDM mRNA in reconstituted human epidermis (RT-PCR); format: cell-based; conditions: 24 h
Description: as §1
(§3) NHEK, RHE and murine skin total RNA were isolated using NucleoSpin® RNA II kit (Macherey-Nagel, Hoerdt, France) and reverse-transcribed with SuperScript® II Reverse Transcriptase (Invitrogen Life Technologies) according to the manufacturer's instructions. Quantitative real time PCR was carried out using the LightCycler-FastStart DNA Master SYBR® Green I kit on LightCycler 480 (Roche Diagnostics, Meylan, France). The reaction components were 1×DNA Master Mix, and 0.5 μM of HPLC purified sense and anti-sense oligonucleotides purchased from Eurogentec (Eurogentec France, Angers, France), designed using Primer3 software. The stability of the housekeeping gene expression has been assessed by using GeNorm algorithm. […] Thus samples were normalized to G3PDH housekeeping gene and reported according to the ΔΔCT method as RNA fold increase: 2^ΔΔCT=2^ΔCT sample−ΔCT reference.

NHEK [5] = experiment: RT-QPCR of antimicrobial peptide and chemokine genes in NHEK; format: cell-based, human; conditions: 10 ng/ml, 24 h
Description: as §2
NHEK and skin total RNA were isolated and reverse-transcribed as previously described (Boniface et al, 2005). Quantitative real time PCR was carried using the LightCycler-FastStart DNA Master SYBR® Green I kit on LightCycler 480 (Roche Diagnostics, Meylan, France). The reaction components were 1×DNA Master Mix, and 0.5 μM of HPLC purified sense and anti-sense oligonucleotides purchased from Eurogentec (Eurogentec France, Angers, France), designed using Primer3 software. Samples were normalized to three independent control housekeeping genes (G3PDH, RPL13A or ACTB for human samples and G3PDH, HMBS or B2m for mouse samples) and reported according to the ΔΔCT method as RNA fold increase: 2^ΔΔCT=2^ΔCT sample−ΔCT eference. For comparison of normal skin and psoriatic skin the REST 2008 software was used (Pfaffl et al., 2002).

NHEK [6] = experiment: Keratinocyte differentiation marker (KDM) mRNA in NHEK (RT-PCR); format: cell-based, human; conditions: 24 h; for mRNA expression of CK1, DSG1, DSC1, FLG, CLSP, LOR and FABPS: single cytokines 10 ng/ml
Description: as §1, §3

[7] = tested on: normal human keratinocytes (NHEK); experiment: Cytokine cocktails on S100A7, hBD2/4, KRT10 mRNA in NHEK (RT-Q-PCR); format: cell-based; conditions: NHEK 24 hrs, 1 ng/ml each
Description: Quantitative real time PCR was carried out using the LightCycler-FastStart DNA Master^PLUS SYBR Green I kit (Roche, Mannheim, Germany). The reaction components were 1× FastStart DNA Master^PLUS SYBR Green I and 0.5 μM of forward and reverse primers for S100A7 (forward 5′-[…]-3′ (SEQ ID No: 9) and reverse 5′-[…]-3′ (SEQ ID No: 10)), S100A8 (Pattyn, Speleman et al. 2003), S100A9 (forward 5′-[…]-3′ (SEQ ID No: 11) and reverse 5′-[…]-3′ (SEQ ID No: 12)), hBD2/4 (forward 5′-[…]-3′ (SEQ ID No: 13) and reverse 5′-[…]-3′ (SEQ ID No: 14)), KRT10 (forward 5′-[…]-3′ (SEQ ID No: 15) and reverse 5′-[…]-3′ (SEQ ID No: 16)), and hydroxymethyl-bilane synthase (HMBS) as a housekeeping gene (Vandesompele, De Preter et al. 2002). After cDNA fluorescent quantification using propidium iodide, 250 ng, 25 ng and 2.5 ng of cDNA were added as PCR template in the LightCycler glass capillaries. The cycling conditions comprised a 10 min polymerase activation at 95° C. and 50 cycles at 95° C. for 10 s, 64° C. for 5 s and 72° C. for 18 s with a single fluorescence measurement. […] A mathematical model was used to determine the relative quantification of target genes compared to HMBS reference gene (Pfaffl 2001).
To that aim, confluent normal human keratinocytes (NHEK) were treated for 24 hrs with the indicated mix of cytokines (each cytokine at 1 ng/ml final concentration). Total RNA was extracted, reverse-transcribed and the expression of the selected genes was analyzed by real-time PCR as described.

CC(C)(C)c1nc2c3ccc(F)cc3c3c(=O)[nH]ccc3c2[nH]1 [JAKs inhibitor, reference compound]
Effect on M5-induced RHE disruption and hyperplasia (RHE [1]; JAKs inhibitor 10 μM with M5 (3 ng/ml)): protects the integrity of the RHE and blocked the epidermal hyperplasia

IL-6: cytokine of the same family as OSM
Number of genes (of 154) whose expression is modified with at least a three fold increase or decrease (NHEK [2]): at least five genes | Redundancy with the family member it replaces in M5 (BD2 and CXCL8 production) (NHEK [3]): weak redundancy

IL-17A: recombinant cytokine; IL-17 designates IL-17A, IL-17B or a mixture, preferably IL-17A
IVL mRNA expression (RHE [4]): discretely inhibited | Number of the 21 chemokine and antimicrobial peptide genes upregulated (NHEK [5]): 16 | Number of KDM whose control mRNA expression is partially restored on removal of the cytokine from M5 (NHEK [6]): 3 KDM | mRNA expression of CK1, DSG1, DSC1, FLG, CLSP, LOR and FABPS (NHEK [6]): minor activities | Decrease of the activity of the 5 cytokines reference mix on omission of the cytokine, S100A7 [7]: 4.5 fold | Decrease of the activity of the 5 cytokines reference mix on omission of the cytokine, hBD2/4 [7]: 36 fold | Number of genes (of 154) whose expression is modified with at least a three fold increase or decrease (NHEK [2]): at least five genes | CK10, LOR and FLG expression (immunohistology) (RHE [1]): did not exhibit any activity | IVL expression (immunohistology) (RHE [1]): discreetly induced | S100A7 expression (immunohistology) (RHE [1]): very slightly | RHE histology (RHE [1]): does not modify RHE histology | BD2 production, single cytokines (NHEK [3]; 10 ng/ml): most potent inducers | Contribution to M5 activity on BD2 and CXCL8 production (successive removal) (NHEK [3]): more critical to the activity of the M5 combination

TNFα
Number of the 21 chemokine and antimicrobial peptide genes upregulated (NHEK [5]): 20 | Rank as contributor to keratinocyte differentiation inhibition (removal from M5) (NHEK [6]): most potent cytokines for keratinocyte differentiation inhibition | mRNA expression of CK1, DSG1, DSC1, FLG, CLSP, LOR and FABPS (NHEK [6]): downregulate mRNA expression | Decrease of the activity of the 5 cytokines reference mix on omission of the cytokine, S100A7 [7]: 3 fold | Decrease of the activity of the 5 cytokines reference mix on omission of the cytokine, hBD2/4 [7]: 5.6 fold | Number of genes (of 154) whose expression is modified with at least a three fold increase or decrease (NHEK [2]): at least five genes | CK10, LOR and FLG expression (immunohistology) (RHE [1]): did not exhibit any activity | IVL expression (immunohistology) (RHE [1]): discreetly induced | S100A7 expression (immunohistology) (RHE [1]): very slightly | RHE histology (RHE [1]): does not modify RHE histology | Contribution to M5 activity on BD2 and CXCL8 production (successive removal) (NHEK [3]): more critical to the activity of the M5 combination

IL-1β: cytokine of the same family as IL-1α
Number of genes (of 154) whose expression is modified with at least a three fold increase or decrease (NHEK [2]): at least five genes | Redundancy with the family member it replaces in M5 (BD2 and CXCL8 production) (NHEK [3]): total redundancy

B1: INFγ: gamma Interferon (protein, UniProt P01579 24-161, looked up)
Interferon gamma: QDPYVKEAENLKKYFNAGHSDVADNGTLFLGILKNWKEESDRKIMQSQIVSFYFKLFKNFKDDQSIQKSVETIKEDMNVKFFNSNKKKRDDFEKLTNYSVTDLNVQRKAIHELIQVMAELSPAAKTGKRKRSQMLFRG
Effect of depleting the cytokine from the mix on activity of the complete cocktail [7]: did not significantly decrease the activity

B2: TNFβ: cytokine of the same family as TNFα (protein, UniProt P01374 35-205, looked up)
Lymphotoxin-alpha: LPGVGLTPSAAQTARQHPKMHLAHSTLKPAAHLIGDPSKQNSLLWRANTDRAFLQDGFSLSNNSLLVPTSGIYFVYSQVVFSGKAYSPKATSSPLYLAHEVQLFSSQYPFHVPLLSSQKMVYPGLQEPWLHSMYHGAAFQLTQGDQLSTHTDGIPHLVLSPSTVFFGAFAL
Redundancy with the family member it replaces in M5 (BD2 and CXCL8 production) (NHEK [3]): strong redundancy

B3: IL-24: cytokine of the same family as IL-22 (protein, UniProt Q13007 52-206, looked up)
Interleukin-24: QEFHFGPCQVKGVVPQKLWEAFWAVKDTMQAQDNITSARLLQQEVLQNVSDAESCYLVHTLLEFYLKTVFKNYHNRTVEVRTLKSFSTLANNFVLIVSQLQPSQENEMFSIRDSAHRRFLLFRRAFKQLDVEAALTKALGEVDILLTWMQKFYKL
Number of genes (of 154) whose expression is modified with at least a three fold increase or decrease (NHEK [2]): at least five genes | Redundancy with the family member it replaces in M5 (BD2 and CXCL8 production) (NHEK [3]): limited redundancy

B4: IL-17F: cytokine of the same family as IL-17A (protein, UniProt Q96PD4 31-163, looked up)
Interleukin-17F: RKIPKVGHTFFQKPESCPPVPGGSMKLDIGIINENQRVSMSRNIESRSTSPWNYTVTWDPNRYPSEVVQAQCRNLGCINAQGKEDISMNSVPIQQETLVVRRKHQGCSVSFQLEKVLVTVGCTCVTPVIHHVQ
Redundancy with the family member it replaces in M5 (BD2 and CXCL8 production) (NHEK [3]): limited redundancy
